Test results from US20070004715A1, “Novel spiro-quinuclidinyl derivatives for the treatment of central nervous system disorders” (priority 2005, published 2007).
Structures can show the parent of a compound that is named as a salt.

Experiments:
fluo-Aβ1-40 = target: T1, fluo-Aβ1-40 (Homo sapiens, UniProt P05067); assay: Aβ Aggregation Assay (Synthaloid plates, fluo-Aβ1-40); type: biochemical; settings: 10 μM test compound, 100 nM fluo-Aβ1-40, 2.5 hr at room temperature; higher % = greater effectiveness at preventing aggregation
T1 construct: added 100 nM of fluo-Aβ1-40 in 100 μl
T1 sequence (P05067 672-711): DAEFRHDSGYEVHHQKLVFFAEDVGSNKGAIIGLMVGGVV
Procedure: Aβs are known to form aggregates leading to the formation of amyloid plaques that are characteristic of Alzheimer's disease.
This aggregation assay was validated using both ^125I-Aβ1-40 and fluo-Aβ1-40 in a buffer containing 50 mM HEPES, pH 7.4, 0.1% BSA, 10% FCS and protease inhibitors.
To each well of a 96-well Synthaloid plate was added 100 nM of fluo-Aβ1-40 in 100 μl. To each well was then added 10 μM of test compound. The plate was then allowed to incubate for 2.5 hr at room temperature. At the end of the incubation, unbound protein in the wells was removed by three washes using the buffer as described above. The amount of bound protein (which represents the amount of Aβ aggregation) was measured either by fluorescence measurements.
Higher fluorescence values relative to vehicle wells were interpreted as an indication of greater Aβ aggregation. […] Higher % values in the data in Table 4 below, below indicates greater effectiveness at preventing aggregation.
(§1) Both the Aβ aggregation assay as described in Example 55, particularly as run using the ^125I-Aβ1-40, and the % inhibition of AcH release assay as described in Example 56, were highly variable on a run-to-run basis. However, the relative activities of the tested compounds were reproducible.

[1] = system: Synaptosomes from guinea pig hippocampus; assay: % Inhibition of AcH Release Assay (K+-evoked 3H-acetylcholine release); type: cell-based; settings: synaptosomes pre-treated with 10 μM test compound prior to 65 mM K+ stimulation
Procedure: Synaptosomes from guinea pig hippocampus were incubated with 0.1 μM ^3H-choline and then subjected to repeated washes with buffer to remove unincorporated ^3H-choline. The synaptosomes were then treated with 65 mM K^+ for 30 seconds to elicit 3H-acetylcholine release.
To determine if a test compound will inhibit acetylcholine release, the synaptosomes were pre-treated with 10 μM of the test compound prior to the K+ stimulation. The decrease or increase in acetylcholine release was then measured by superfusion.
as §1

Row | SMILES | Aβ aggregation inhibition (%) (fluo-Aβ1-40) | Inhibition of acetylcholine release [1] [%]
1 | O=C1OC2(CN3CCC2CC3)C(=O)N1c1cccc(C(F)(F)F)c1 (stereo not shown) [Compound 1, 3′-(3-trifluoromethylphenyl)-quinuclidine-3-spiro-5′-oxazolidine-2′,4′-dione trifluoroacetate salt] | 100 | 36
2 | Cc1ccc(N2C(=O)OC3(CN4CCC3CC4)C2=O)cc1 (stereo not shown) [Compound 2, 3′-(4-methylphenyl)-quinuclidine-3-spiro-5′-oxazolidine-2′,4′-dione trifluoroacetate salt] | 44 | 74
3 | COc1ccc(N2C(=O)OC3(CN4CCC3CC4)C2=O)cc1 (stereo not shown) [Compound 3, 3′-(4-methoxyphenyl)-quinuclidine-3-spiro-5′-oxazolidine-2′,4′-dione trifluoroacetate salt] | 100 | 27
4 | COc1ccc(N2C(=O)OC3(CN4CCC3CC4)C2=O)c(C)c1 (stereo not shown) [Compound 4, 3′-(4-methoxy-2-methylphenyl)-quinuclidine-3-spiro-5′-oxazolidine-2′,4′-dione trifluoroacetate salt] | 95 | 36
5 | O=C1OC2(CN3CCC2CC3)C(=O)N1c1ccc(Cl)c(Cl)c1 (stereo not shown) [Compound 5, 3′-(3,4-dichlorophenyl)-quinuclidine-3-spiro-5′-oxazolidine-2′,4′-dione trifluoroacetate salt] | 98 | 27
6 | O=C1OC2(CN3CCC2CC3)C(=O)N1c1cccc([N+](=O)[O-])c1 (stereo not shown) [Compound 6, 3′-(3-nitrophenyl)-quinuclidine-3-spiro-5′-oxazolidine-2′,4′-dione trifluoroacetate salt] | 21 | 64
7 | O=C1OC2(CN3CCC2CC3)C(=O)N1c1cc(Cl)cc(Cl)c1 (stereo not shown) [Compound 7, 3′-(3,5-dichlorophenyl)-quinuclidine-3-spiro-5′-oxazolidine-2′,4′-dione trifluoroacetate salt] | 62 | 70
8 | O=C1OC2(CN3CCC2CC3)C(=O)N1c1cc(C(F)(F)F)cc(C(F)(F)F)c1 (stereo not shown) [Compound 8, 3′-(3,5-bis(trifluoromethyl)phenyl)-quinuclidine-3-spiro-5′-oxazolidine-2′,4′-dione trifluoroacetate salt] | 0 | 77
9 | O=C1OC2(CN3CCC2CC3)C(=O)N1c1ccccc1F (stereo not shown) [Compound 9, 3′-(2-fluorophenyl)-quinuclidine-3-spiro-5′-oxazolidine-2′,4′-dione trifluoroacetate salt] | 100 | 16
10 | O=C1OC2(CN3CCC2CC3)C(=O)N1c1cccc(Cl)c1 (stereo not shown) [Compound 10, 3′-(3-chlorophenyl)-quinuclidine-3-spiro-5′-oxazolidine-2′,4′-dione trifluoroacetate salt] | 50 | 60
11 | Cc1ccc(C)c(N2C(=O)OC3(CN4CCC3CC4)C2=O)c1 (stereo not shown) [Compound 11, 3′-(2,5-dimethyphenyl)-quinuclidine-3-spiro-5′-oxazolidine-2′,4′-dione trifluoroacetate salt] | 0 | 71
12 | O=C1OC2(CN3CCC2CC3)C(=O)N1c1cc(Cl)ccc1Cl (stereo not shown) [Compound 12, 3′-(2,5-dichlorophenyl)-quinuclidine-3-spiro-5′-oxazolidine-2′,4′-dione trifluoroacetate salt] | 85 | 17
13 | CCOC(=O)c1cccc(N2C(=O)OC3(CN4CCC3CC4)C2=O)c1 (stereo not shown) [Compound 13, 3′-(3-ethoxycarbonylphenyl)-quinuclidine-3-spiro-5′-oxazolidine-2′,4′-dione trifluoroacetate salt] | 100 | 20
14 | COc1cccc(N2C(=O)OC3(CN4CCC3CC4)C2=O)c1 (stereo not shown) [Compound 14, 3′-(3-methoxyphenyl)-quinuclidine-3-spiro-5′-oxazolidine-2′,4′-dione trifluoroacetate salt] | 42 | 14
15 | O=C1OC2(CN3CCC2CC3)C(=O)N1c1cccc(O)c1 (stereo not shown) [Compound 15, 3′-(3-hydroxyphenyl)-quinuclidine-3-spiro-5′-oxazolidine-2′,4′-dione trifluoroacetate salt] | 50 | 55
16 | Cc1ccc(N2C(=O)OC3(CN4CCC3CC4)C2=O)cc1C (stereo not shown) [Compound 16, 3′-(3,4-dimethylphenyl)-quinuclidine-3-spiro-5′-oxazolidine-2′,4′-dione trifluoroacetate salt] | 67 | 44
17 | O=C1OC2(CN3CCC2CC3)C(=O)N1c1ccc(O)cc1 (stereo not shown) [Compound 18, 3′-(4-hydroxyphenyl)-quinuclidine-3-spiro-5′-oxazolidine-2′,4′-dione trifluoroacetate salt] | 0 | 23
18 | Cc1cc(O)ccc1N1C(=O)OC2(CN3CCC2CC3)C1=O (stereo not shown) [Compound 19, 3′-(4-hydroxy-2-methylphenyl)-quinuclidine-3-spiro-5′-oxazolidine-2′,4′-dione trifluoroacetate salt] | 0 | 27
19 | Cc1cc(C)cc(N2C(=O)OC3(CN4CCC3CC4)C2=O)c1 (stereo not shown) [Compound 20, 3′-(3,5-dimethylphenyl)-quinuclidine-3-spiro-5′-oxazolidine-2′,4′-dione trifluoroacetate salt] | 0 | 53
20 | O=C1OC2(CN3CCC2CC3)C(=O)N1c1ccc(F)cc1F (stereo not shown) [Compound 21, 3′-(2,4-difluorophenyl)-quinuclidine-3-spiro-5′-oxazolidine-2′,4′-dione trifluoroacetate salt] | 1 | 17
21 | Cc1ccc(N2C(=O)OC3(CN4CCC3CC4)C2=O)cc1Cl (stereo not shown) [Compound 24, 3′-(3-chloro-4-methylphenyl)-quinuclidine-3-spiro-5′-oxazolidine-2′,4′-dione trifluoroacetate salt] | 40 | 44
22 | O=C1OC2(CN3CCC2CC3)C(=O)N1c1cccc(F)c1 (stereo not shown) [Compound 25, 3′-(3-fluorophenyl)-quinuclidine-3-spiro-5′-oxazolidine-2′,4′-dione trifluoroacetate salt] | 5 | 48
23 | Cc1ccccc1N1C(=O)OC2(CN3CCC2CC3)C1=O (stereo not shown) [Compound 26, 3′-(2-methylphenyl)-quinuclidine-3-spiro-5′-oxazolidine-2′,4′-dione trifluoroacetate salt] | 45 | 54
24 | Cc1cccc(N2C(=O)OC3(CN4CCC3CC4)C2=O)c1C (stereo not shown) [Compound 27, 3′-(2,3-dimethylphenyl)-quinuclidine-3-spiro-5′-oxazolidine-2′,4′-dione trifluoroacetate salt] | 35 | 25
25 | CC(C)c1ccccc1N1C(=O)OC2(CN3CCC2CC3)C1=O (stereo not shown) [Compound 28, 3′-(2-isopropylphenyl)-quinuclidine-3-spiro-5′-oxazolidine-2′,4′-dione trifluoroacetate salt] | 0 | 47
26 | COc1ccc(OC)c(N2C(=O)OC3(CN4CCC3CC4)C2=O)c1 (stereo not shown) [Compound 29, 3′-(2,5-dimethoxyphenyl)-quinuclidine-3-spiro-5′-oxazolidine-2′,4′-dione trifluoroacetate salt] | 100 | 20
27 | CCOC(=O)CN1C(=O)OC2(CN3CCC2CC3)C1=O (stereo not shown) [Compound 30, 3′-(2-ethoxycarbonylmethyl)-quinuclidine-3-spiro-5′-oxazolidine-2′,4′-dione hydrochloride] | 100 | 21
28 | COc1ccc(N2C(=N)CC3(CN4CCC3CC4)OC2=O)cc1 (stereo not shown) [Compound 100, 3′-(4-methoxyphenyl)-quinuclidine-3-spiro-4′-iminooxan-2-ones trifluoroacetate salt] | 48 | 34
29 | Cc1ccc(N2C(=N)CC3(CN4CCC3CC4)OC2=O)cc1 (stereo not shown) [Compound 101, 3′-(4-methylphenyl)-quinuclidine-3-spiro-4′-iminooxan-2-ones trifluoroacetate salt] | 27 | 24
